Reference: article PMC11921695 (BMC Cancer, 2025)
“Also recorded” adds a separate entry of the source.

Experiments:
[1] = tested on: patients with HIV-associated KS; test: Number of selumetinib cycles completed and reasons for discontinuation; assay type: in vivo; settings: 6/16 participants
From the text: Reasons for discontinuation were reported in relation to the number of cycles received.

[2] = tested on: non-small cell lung cancer; set-up: method as in SCART protocol 7.3.1; settings: combination arm; ref SCART protocol 7.3.1; cited from earlier work
[3] = tested on: Tie-2; test: Serum angiogenic marker ELISA; assay type: in vivo, human; settings: end of cycles 1, 2, 4 and 6 vs pre-dose cycle 1 day 1; any dose
Experimental: (§1) Pharmacodynamic measures were assessed by percentage changes in serum angiogenic markers and correlated with tumour response. The baseline used was that measured at cycle visit 1 day 1 pre-selumetinib treatment. Analysis of longitudinal data was performed using a mixed effects repeated measured regression, with a trend line and 90% CI derived using the fixed effect estimates from the model.
(§2) Circulating angiogenic biomarkers on cycle 1 day 1 pre-treatment, cycle 2 day 1, cycle 3 day 1, cycle 5 day 1 and end of cycle 6 (all ±1 day except cycle 1 day 1 pre-treatment).
(§3) HIV-1 viral load and CD4 counts were measured as per standard of care at hospital sites. To measure the concentration of angiogenesis markers, 8.5 ml blood was collected in BD vacutainer no-additive serum tubes. Samples were kept at room temperature for 30 minutes before centrifugation at 2000 g for 20 minutes at room temperature. Serum samples were then stored at -80 °C prior to analysis. Serum Ang-1, Ang-2 and TIE levels were assessed using commercial ELISAs (Thermo Fisher Scientifc hAng-1 (EHANGPT1), R&D DuoSet Ang-2 (DY623), eBioscience hTIE2 (BMS2042)), according to manufacturer instructions at laboratories at the University of Sheffield.

[4] = tested on: Ang-2; test: Serum angiogenic marker ELISA; assay type: in vivo, human
Experimental: as §1, §2, §3

[5] = tested on: Ang-1; test: Serum angiogenic marker ELISA; assay type: in vivo, human; settings: end of cycles 1, 2, 4 and 6 vs pre-dose cycle 1 day 1; any dose
Experimental: as §1, §2, §3

Cn1cnc2c(F)c(Nc3ccc(Br)cc3Cl)c(C(=O)NOCCO)cc21 [selumetinib, 6-(4-Bromo-2-chloro-phenylamino)-7-fluro-3-methyl-3 H-benzoimidazole-5-carboxylic acid (2-hydroxy-ethoxy)-amide hydrogen sulphate]
participants who discontinued selumetinib due to toxicity before completing six cycles [1]: 37.5%
febrile neutropenia CTCAE grade 3, patients [2]: 6/44
febrile neutropenia CTCAE grade 4, patients [2]: 2/44
change in circulating level of Tie-2 [3]: no significant changes; also recorded: no changes were observed
change in circulating level of Ang-2 ([4]; end of cycles 1, 2, 4 and 6 vs pre-dose cycle 1 day 1, any dose): no significant changes
serum levels of Ang-2 on treatment compared to baseline (trend) ([4]; on selumetinib treatment): tended to be lower
change in circulating level of Ang-1 [5]: no significant changes
